Data published in US4481201A, “Pharmaceutical composition containing N,N^3 -di-(β-bromopropionyl)-N^1,N^2 -dispirotripiperazinium dichloride” (Vsesojuzny Nauchno-Issledovatelsky Khimoko-Farmasevtichesky …, priority 1981, dated 1984).
Where two headings read alike, the source gives them in different places.

Legend:
[1] = Growth of graft sarcoma 45 in rats; format: in vivo; conditions: rat, in vivo, ip, rats with sarcoma 45, repeated intraperitoneal administration; read-out: Maximum tolerable dose (MTD)
Text: (§1) The antitumor activity has been studied on white rats weighing 110-130 g, as well as on white noninbred and inbred mice weighing 17-21 g with ligated tumors. The treatment is started 5-7 days transplanting of solid tumors and the following day after the transplanting of leukotic strains. Use has been made of the following transplantable strains of the tumors:
(§2) (1) rats: Ienssen's sarcoma, sarcoma 45, sarcoma M-1, sarcoma 536;
(§3) The compounds of the general formula (I), wherein X represents Cl^- (compound 1), Br^- (compound 2) are well-soluble in an isotonic solution of sodium chloride and they are administered intraperitoneally. The doses of the compounds have been calculated in mg per kg of the animal bodyweight.

[2] = tested on: sarcoma 45; assay: Growth of graft sarcoma 45 in rats; format: in vivo; conditions: rats
Text: as §1, §2, §3

[3] = Growth of graft sarcoma AK in mice; format: in vivo, noninbred white mice; conditions: mouse, in vivo, ip; mice with sarcoma AK, repeated intraperitoneal administration; read-out: Maximum tolerable dose (MTD)
Text: as §1
(§4) (2) noninbred white mice: sarcoma 180, sarcoma AK, sarcoma 37, carcinoma HK;
as §3

[4] = tested on: sarcoma AK; assay: Growth of graft sarcoma AK in mice; format: in vivo, noninbred white mice; conditions: mice
Text: as §1, §4, §3

[5] = tested on: leukemia L1210; assay: Life span of mice with transplantable leukemia L1210; format: in vivo, inbred mice
Text: as §1
(§5) (3) inbred mice: leukemia La, leukemia L1210 and P-388.
(§6) The activity of compounds relative to leukosis has been assessed by the life span (It) of treated animals as compared to the control ones. It --index of suppression of leukosis development is calculated by the formula: [formula]

[6] = tested on: leukemia La; assay: Life span of mice with transplantable leukemia La; format: in vivo, inbred mice
Text: as §1, §5, §6

[7] = Withdrawal of radioactivity from the rats' organism; format: in vivo; parameters: concentration or dose not given beside the values; conditions: C^14-labeled
Text: In the case of administration of the preparation according to the present invention labeled with C^14, a higher level of radioactivity in blood is observed than in the case of prospidin labeled with C^14. A higher rate of accumulation of the preparation according to the present invention as compared to prospidin is observed in larynx, windpipe, bronchi, bone marrow, tumor and thyroid gland. The preparation according to the present invention labeled with C^14 is withdrawn from the organism within 24 hours after the intravenous administration mainly with urine, while C^14 --labeled prospidin is retained in the organism for a longer period.

[8] = tested on: acute leucosis; assay: Clinical study on patients; format: in vivo
Text: The preparation according to the present invention has been studied in two clinics on patients with different localization of the tumoral process; the tests have justified its low toxicity.
54 patients were under observation including 20 patients with malignant blood diseases. In all the patients both before and after the course of treatment with the medicated compound according to the present invention the clinical state has been assessed (general state, presence of increased lymphatic nodes, liver and spleen). There were also carried out the analyses of peripheral blood, bone marrow, urine, as well as biochemical blood characteristics and electrocardiographic data (ECG).

[9] = Solubility; format: physicochemical
Description: as §3
To a mixture of 3 g of N^1,N^2 -dispirotripiperazinium dichloride, 1.5 g of lithium hydroxide, 1 ml of water and 10 ml of ether a solution of 5.2 g of β-bromopropionic acid chlorid in 5 ml of ether is added under vigorous stirring and at a temperature of 5° to 10° C. The reaction mass is stirred for 2 hours at the temperature of 15° C. The residue is filtered off, dissolved in 10 ml of water; the resulting aqueous solution is poured in 100 ml of methanol.

[10] = tested on: transplantable leukemia; assay: Activity relative to leukoses of inbred mice (overall); format: in vivo
Text: (2) activity of the compounds relative to leukoses of inbred mice;
as §1, §5, §6

[11] = 50 mg/kg intraperitoneally, 7 injections
[12] = 80 mg/kg intraperitoneally, 5 injections
[13] = 75 mg/kg intraperitoneally, 8 injections
[14] = 125 mg/kg intraperitoneally, 6 injections
[15] = mice with transplantable leukemia L1210
[16] = mice with transplantable leukemia La
[17] = 24 hours after intravenous administration

O=C(CCBr)N1CC[N+]2(CC1)CC[N+]1(CCN(C(=O)CCBr)CC1)CC2 [Compound 1, N,N^3 -di-(β-bromopropionyl)-N^1,N^2 -dispirotripiperazinium dichloride]
MTD [1]: 125 mg/kg | Change in the animal body weight, test ([2]; 20 mg/kg intraperitoneally, 7 injections): -12 g | It, % tumor growth suppression index ([2]; 20 mg/kg intraperitoneally, 7 injections, 20 mg/kg): 0% | Change in the animal body weight, test [2, 11]: -8 g | It, % tumor growth suppression index [2, 11]: +61% | Change in the animal body weight, test [2, 12]: -9 g | It, % tumor growth suppression index [2, 12]: +99% | Change in the animal body weight, test ([2]; 125 mg/kg intraperitoneally (MTD), 5 injections): -3 g | MTD [3]: 250 mg/kg | Change in the animal body weight, test [4, 13]: -3 g | It, % tumor growth suppression index [4, 13]: +81% | Change in the animal body weight, test [4, 14]: -1 g | It, % tumor growth suppression index [4, 14]: +62% | It, % tumor growth suppression index ([4]; 200 mg/kg intraperitoneally, 5 injections): +64% | Change in the animal body weight, test ([4]; 250 mg/kg intraperitoneally (MTD), 6 injections): -3 g | extension of life span as compared to the control, factor ([5]; leukemia L1210): 1.03 | It, % index of suppression of leukosis development [5, 15]: 38% | Life span [5, 15]: 10.6 ± 2 days | extension of life span of treated mice as compared to the control ([6]; leukemia La, MTD): 3 times | It, % index of suppression of leukosis development [6, 16]: 218% | Life span [6, 16]: 21.2 ± 0.1 days | Withdrawal of radioactivity, Feces [7, 17]: 1.6% | Withdrawal of radioactivity, Total [7, 17]: 99.9% | Withdrawal of radioactivity, Urina [7, 17]: 98.3% | Withdrawal of radioactivity, Urina ([7]; within 3 hours after intravenous administration): 80.7% | patients with positive effect ([8]; intravenously, doses of from 100 to 1,000 mg): 45% | tolerability in patients ([8]; intravenously, single doses 500 to 600 mg daily (up to 10 g for 20 days)): well tolerated | patients with complete clinicohematological remission ([8]; patients with acute lympho- and mielo-regional leukemiae, intravenously 100 to 1,000 mg): 20% | solubility in an isotonic solution of sodium chloride [9]: well-soluble | solubility in organic solvents [9]: substantially insoluble | solubility in water [9]: well soluble | effect on transplantable leukemia in mice [10]: clearly pronounced antileukotic effect | effect on transplantable leukemia in mice ([10]; listed as preparation according to the present invention): pronounced antileucotic effect
